{"source": "patent US7141596B2", "about": "“Inhibitors of proteins that bind phosphorylated molecules” (Incyte Corporation, priority 2003, dated 2006)", "biological_target": "T1, human PTP1B catalytic domain (residues 1–298) (Homo sapiens, UniProt P18031)", "T1 construct": "The catalytic domain (residues 1–298) of human PTP1B; His tag (N); made in house; host or cells: E. coli", "T1 sequence (P18031 1-298)": "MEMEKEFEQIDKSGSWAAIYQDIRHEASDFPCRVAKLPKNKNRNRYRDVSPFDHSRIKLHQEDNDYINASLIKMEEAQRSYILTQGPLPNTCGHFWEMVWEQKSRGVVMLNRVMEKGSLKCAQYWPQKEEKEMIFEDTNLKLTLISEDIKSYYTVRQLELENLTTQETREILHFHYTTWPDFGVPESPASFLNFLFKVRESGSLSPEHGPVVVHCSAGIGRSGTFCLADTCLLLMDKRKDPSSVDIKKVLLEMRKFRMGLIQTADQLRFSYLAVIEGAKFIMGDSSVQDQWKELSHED", "assay": "hPTP1B in vitro activity assay (pNPP dephosphorylation)", "assay_type": "biochemical", "conditions": "Isomer 1 compared with Isomer 2 (5S/5R diastereomers separated by chiral HPLC)", "procedure": "Compounds were serially diluted in DMSO and spotted into the assay plate. Both the enzyme and substrate were diluted into the assay buffer containing 25 mM tris-bis-propone (pH 7.0 @ rt) and 0.1 mg/ml of BSA. 40 of μL enzyme solution was added to the assay plate containing compounds and was incubated for 30 minutes. 40 μL of substrate solution was then added to the assay plate to initiate the reaction. The initial reaction rates of the dephosphorylation of p-nitrophenylphosphate to p-nitrophenol are measured by monitoring absorbance at 410 nm on a SpectraMax for 15–30 min.", "data": [{"smiles": "O=C(O)C(F)(F)F.O=C(O)C(F)(F)F.O=C1C[C@@H](c2ccc(C[C@H](Nc3nc4cc(F)ccc4s3)c3nc4ccccc4[nH]3)cc2)S(=O)(=O)N1.O=C1C[C@H](c2ccc(C[C@H](Nc3nc4cc(F)ccc4s3)c3nc4ccccc4[nH]3)cc2)S(=O)(=O)N1", "note": "(single isomer, unassigned; isomer 1) [4.179 Isomer 1]", "values": [{"measurement": "relative biological activity of the separated diastereomers in the enzyme assay", "value": "more biologically active"}]}]}
